Source: patent publication US11040038B2, “Methods for treating diseases associated with abnormal ACVR1 expression and ACVR1 inhibitors for use in the same” (Sumitomo Dainippon Pharma Oncology, Inc., priority 2018, dated 2021)
Values after ≈ are worked out from the molar mass of the structure shown. Read-outs that look alike come from different tables or passages of the source. One block for each molecule: values may come before it.

Legend:
Assay type in all cases: physicochemical
[1] = Hygroscopicity by DVS at 25° C.; conditions: for Hygroscopicity (%), water uptake: 25° C./80% RH
Description: A DVS isotherm plot was collected at 25° C. to investigate the solid form stability as a function of humidity. All the anhydrous samples were pre-equilibrated at 0% RH to remove the unbounded solvent or water before getting started. As evidenced by the water uptake of […] up to 80% RH, freebase Form A and both two salt forms were slightly hygroscopic, and no solid form change was observed after DVS evaluation (FIGS. 20A, 20B, 20C, 20D, 20E, and 20F).
Dynamic Vapor Sorption (DVS) was measured via a SMS (Surface Measurement Systems) DVS Intrinsic. The relative humidity at 25° C. were calibrated against deliquescence point of LiCl, Mg(NO3)2 and KCl.

[2] = Kinetic solubility in pH 2, 5 and 7 buffers at RT; conditions: for solubility at 1 h / solubility at 2 h / solubility at 4 h / solubility at 24 h: 19 °C, aqueous buffer, thermodynamic from solid, read-out: S: solubility; for solubility at 1 h / solubility at 2 h / solubility at 4 h / solubility at 24 h / FC: solid form change / pH: final pH of supernatant / S: solubility: RT
Description: Kinetic solubility of two salt leads was measured in pH 2, 5, and 7 buffers to evaluate their solubility and disproportionation risk, using freebase Form A (812608-05-A) as control. […] After centrifugation, supernatants were collected for HPLC and pH tests, and wet cakes were collected for XRPD characterization. If clear solutions were obtained, accurate concentration was measured for the solutions.
Agilent 1100/1260 HPLC was utilized and detailed chromatographic conditions for purity and solubility measurement are listed in Table 39.

[3] = Solid-state stability under 40° C./75% RH for one week; conditions: for Solid-state Stability: 40° C./75% RH for at least one week; for FC: form change based on XRPD results / Purity vs. Initial (%): 40° C./75% RH; for FC: form change based on XRPD results / Purity vs. Initial (%) / Purity (area %): one week; for Purity (area %): after 40° C./75% RH, HPLC
Description: Solid-state stability of freebase Form A, HCl salt Form A and fumarate Form A was evaluated under 40° C./75% RH for one week. Stability samples were characterized by XRPD to check any solid form change and by HPLC to check purity change.

[4] = Approximate solubility of freebase in 12 solvents at RT; conditions: thermodynamic from solid
Description: Approximate solubility of freebase Form A (812608-05-A) was measured in 12 solvents at RT. For each experiment, approximately 2 mg of sample was added into a 3 mL glass vial. Solvents in Table 35 were then added step wise (50, 50, 200, 200, 500 μL) into the vials until the solids were dissolved visually or a total volume of 1 mL was reached. Solubility results summarized in Table 35 were used to guide the solvent selection in salt screening design.

[5] = Estimated pKa values; conditions: method not stated

Hygroscopicity (%), water uptake [1]: (0.60) %
solubility at 1 h ([2]; pH 2 buffer, 1 hr): 4300 µg/mL (≈ 9.18 mM)
solubility at 2 h ([2]; pH 2 buffer, 2 hrs): 4100 µg/mL (≈ 8.75 mM)
solubility at 4 h ([2]; pH 2 buffer, 4 hrs): 4100 µg/mL (≈ 8.75 mM)
solubility at 24 h ([2]; pH 2 buffer, 24 hrs): 3200 µg/mL (≈ 6.83 mM)
solubility at 1 h ([2]; pH 5 buffer, 1 hr): 7400 µg/mL (≈ 15.8 mM)
solubility at 2 h ([2]; pH 5 buffer, 2 hrs): 7200 µg/mL (≈ 15.4 mM)
solubility at 4 h ([2]; pH 5 buffer, 4 hrs): 6300 µg/mL (≈ 13.4 mM)
solubility at 24 h ([2]; pH 5 buffer, 24 hrs): 6600 µg/mL (≈ 14.1 mM)
solubility at 1 h ([2]; pH 7 buffer, 1 hr): 0.4 µg/mL (≈ 0.000854 mM)
solubility at 2 h ([2]; pH 7 buffer, 2 hrs): 1 µg/mL (≈ 0.00213 mM)
solubility at 4 h ([2]; pH 7 buffer, 4 hrs): 0.4 µg/mL (≈ 0.000854 mM)
solubility at 24 h ([2]; pH 7 buffer, 24 hrs): 8.9 µg/mL (≈ 0.019 mM)
FC: solid form change ([2]; pH 2 buffer, 1 hr): No
pH: final pH of supernatant ([2]; pH 2 buffer, 1 hr): 6.2
FC: solid form change ([2]; pH 2 buffer, 2 hrs): No
pH: final pH of supernatant ([2]; pH 2 buffer, 2 hrs): 6.2
FC: solid form change ([2]; pH 2 buffer, 4 hrs): No
pH: final pH of supernatant ([2]; pH 2 buffer, 4 hrs): 6.2
FC: solid form change ([2]; pH 2 buffer, 24 hrs): No
pH: final pH of supernatant ([2]; pH 2 buffer, 24 hrs): 6.1
FC: solid form change ([2]; pH 5 buffer, 1 hr): No*
pH: final pH of supernatant ([2]; pH 5 buffer, 1 hr): 6.2
FC: solid form change ([2]; pH 5 buffer, 2 hrs): No*
pH: final pH of supernatant ([2]; pH 5 buffer, 2 hrs): 6.3
FC: solid form change ([2]; pH 5 buffer, 4 hrs): No
pH: final pH of supernatant ([2]; pH 5 buffer, 4 hrs): 6.4
FC: solid form change ([2]; pH 5 buffer, 24 hrs): No
pH: final pH of supernatant ([2]; pH 5 buffer, 24 hrs): 6.4
FC: solid form change ([2]; pH 7 buffer, 1 hr): No
pH: final pH of supernatant ([2]; pH 7 buffer, 1 hr): 7.0
FC: solid form change ([2]; pH 7 buffer, 2 hrs): No
pH: final pH of supernatant ([2]; pH 7 buffer, 2 hrs): 6.9
FC: solid form change ([2]; pH 7 buffer, 4 hrs): No
pH: final pH of supernatant ([2]; pH 7 buffer, 4 hrs): 7.0
FC: solid form change ([2]; pH 7 buffer, 24 hrs): No
pH: final pH of supernatant ([2]; pH 7 buffer, 24 hrs): 7.0
FC: form change based on XRPD results [3]: No
Purity vs. Initial (%) [3]: 100.0%
Purity (area %) [3]: 99.18 area %
solubility ([4]; organic solvent or mixture, ACN): < 2000 µg/mL
solubility ([4]; organic solvent or mixture, Acetone): < 2400 µg/mL
solubility ([4]; organic solvent or mixture, EtOAc): < 2500 µg/mL
solubility ([4]; organic solvent or mixture, EtOH): 2100 to 4200 µg/mL (≈ 4.48 to 8.96 mM)
solubility ([4]; organic solvent or mixture, IPA): < 2400 µg/mL
solubility ([4]; organic solvent or mixture, IPAc): < 2400 µg/mL
solubility ([4]; organic solvent or mixture, MIBK): 1900 to 3800 µg/mL (≈ 4.05 to 8.11 mM)
solubility ([4]; organic solvent or mixture, MeOH): 2400 to 4800 µg/mL (≈ 5.12 to 10.2 mM)
solubility ([4]; organic solvent or mixture, THF): 3600 to 6000 µg/mL (≈ 7.68 to 12.8 mM)
solubility ([4]; organic solvent or mixture, Toluene): 2000 to 4000 µg/mL (≈ 4.27 to 8.54 mM)
solubility ([4]; organic solvent or mixture, n-Heptane): < 2100 µg/mL
solubility ([4]; water, H2O): < 1900 µg/mL
pKa [5]: 7.5
SMILES: COc1cc(Nc2nccc(Nc3cccnc3-c3ccccn3)n2)ccc1N1CCN(C)CC1 [Freebase Form A, N^4-(2,2′-bipyridin-3-yl)-N^2-(3-methoxy-4-(4-methylpiperazin-1-yl)phenyl)pyrimidine-2,4-diamine]
Solid-state Stability [3]: Good physicochemical properties under 40° C./75%

Water uptake ([1]; 25° C., 95% RH): 1.40%
Hygroscopicity (%), water uptake [1]: (0.86) %
S: solubility ([2]; pH 2 buffer, 1 hr): 13400 µg/mL
pH: final pH of supernatant ([2]; pH 2 buffer, 1 hr): 5.5
S: solubility ([2]; pH 2 buffer, 2 hrs): 13300 µg/mL
pH: final pH of supernatant ([2]; pH 2 buffer, 2 hrs): 5.6
S: solubility ([2]; pH 2 buffer, 4 hrs): 13200 µg/mL
pH: final pH of supernatant ([2]; pH 2 buffer, 4 hrs): 5.6
S: solubility ([2]; pH 2 buffer, 24 hrs): 11800 µg/mL
pH: final pH of supernatant ([2]; pH 2 buffer, 24 hrs): 5.6
S: solubility ([2]; pH 5 buffer, 1 hr): 13200 µg/mL
pH: final pH of supernatant ([2]; pH 5 buffer, 1 hr): 5.7
S: solubility ([2]; pH 5 buffer, 2 hrs): 13000 µg/mL
pH: final pH of supernatant ([2]; pH 5 buffer, 2 hrs): 5.7
S: solubility ([2]; pH 5 buffer, 4 hrs): 13000 µg/mL
pH: final pH of supernatant ([2]; pH 5 buffer, 4 hrs): 5.7
S: solubility ([2]; pH 5 buffer, 24 hrs): 11600 µg/mL
pH: final pH of supernatant ([2]; pH 5 buffer, 24 hrs): 5.7
FC: solid form change ([2]; pH 7 buffer, 1 hr): Yes
S: solubility ([2]; pH 7 buffer, 1 hr): 13500 µg/mL
pH: final pH of supernatant ([2]; pH 7 buffer, 1 hr): 7.0
FC: solid form change ([2]; pH 7 buffer, 2 hrs): Yes
S: solubility ([2]; pH 7 buffer, 2 hrs): 9600 µg/mL
pH: final pH of supernatant ([2]; pH 7 buffer, 2 hrs): 6.9
FC: solid form change ([2]; pH 7 buffer, 4 hrs): Yes
S: solubility ([2]; pH 7 buffer, 4 hrs): 9400 µg/mL
pH: final pH of supernatant ([2]; pH 7 buffer, 4 hrs): 6.9
FC: solid form change ([2]; pH 7 buffer, 24 hrs): Yes
S: solubility ([2]; pH 7 buffer, 24 hrs): 210 µg/mL
pH: final pH of supernatant ([2]; pH 7 buffer, 24 hrs): 6.4
FC: form change based on XRPD results [3]: No
Purity vs. Initial (%) [3]: 99.9%
Purity (area %) [3]: 99.54 area %
SMILES: COc1cc(Nc2nccc(Nc3cccnc3-c3ccccn3)n2)ccc1N1CCN(C)CC1.Cl [HCl Salt Form A, N^4-(2,2′-bipyridin-3-yl)-N^2-(3-methoxy-4-(4-methylpiperazin-1-yl)phenyl)pyrimidine-2,4-diamine anhydrous hydrochloric acid salt]
Kinetic Solubility compared with freebase Form A ([2]; pH 2, 5 and 7 buffers): showed increased solubility in pH 2, 5 and 7 buffers;
Solid-state Stability [3]: Good physicochemical properties under 40° C./75%
